In US11180462B2, “Microbiocidal oxadiazole derivatives” (SYNGENTA PARTICIPATIONS AG, priority 2015, dated 2021):
Read-outs that look alike come from different tables or passages of the source.

Tests used:
[1] = system: Glomerella lagenarium (Colletotrichum lagenarium); test: Fungicidal activity against Glomerella lagenarium (Colletotrichum lagenarium) liquid culture / cucumber / preventative (anthracnose); format: cell-based; conditions: Colletotrichum orbiculare, read-out: disease control
Procedure, shortened: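 Photometric read-out of fungal growth after 2–7 days, expressed as percent antifungal activity versus untreated check. Cryo-stored conidia in PDB; compound at 20 ppm; dark, 24 °C, 96% RH.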

[2] = system: Puccinia recondita f. Sp. Tritici; test: Fungicidal activity against Puccinia recondita f. sp. tritici / wheat / leaf disc curative (brown rust); format: in vivo; conditions: foliar, 24 h, read-out: disease control
Procedure, shortened: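 Wheat cv. Kanzler leaf segments on agar, inoculated with rust spore suspension, kept dark at 19° C and 75% RH; formulated compound sprayed 1 day post-inoculation. Incubated 19° C, 75% RH, 12 h light/12 h dark; percent disease control vs untreated scored 6 to 8 days after application.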

[3] = system: Puccinia recondita f. Sp. Tritici; test: Fungicidal activity against Puccinia recondita f. sp. tritici / wheat / leaf disc preventative (brown rust); format: in vivo; conditions: foliar, read-out: disease control
Procedure, shortened: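 Preventative leaf-segment test, wheat cv. Kanzler on water agar. Spray compound at 200 ppm, inoculate with spores 1 day later; 19° C., 75% rh, 12/12 h light. Read-out: % disease control vs untreated, 7 to 9 days after application.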

[4] = 20 ppm in the applied formulation, liquid culture (PDB), growth inhibition measured photometrically after 3 to 4 days, compared to untreated control
[5] = 200 ppm in the applied formulation, wheat leaf segments, curative (applied 1 day after inoculation), compared to untreated control leaf disks
[6] = 200 ppm in the applied formulation, wheat leaf segments, preventative, compared to untreated control leaf disks

C#CCN(Cc1ccc(-c2noc(C(F)(F)F)n2)cc1)C(=O)CCCCC [Compound 1.162, N-prop-2-ynyl-N-[[4-[5-(trifluoromethyl)-1,2,4-oxadiazol-3-yl]phenyl]methyl]-hexanamide]
≥ 80%: inhibition of growth at 20 ppm [1, 4] | pest or weed control at 200 ppm [2, 5] | pest or weed control at 200 ppm [3, 6]

COCCN(CCOC)C(=O)N(C)Cc1ccc(-c2noc(C(F)(F)F)n2)cc1 [Compound 3.84, 1,1-bis(2-methoxyethyl)-3-methyl-3-[[4-[5-(trifluoromethyl)-1,2,4-oxadiazol-3-yl]phenyl]methyl]urea]
≥ 80%: inhibition of growth at 20 ppm [1, 4] | pest or weed control at 200 ppm [2, 5] | pest or weed control at 200 ppm [3, 6]

CCN(Cc1ccc(-c2noc(C(F)(F)F)n2)cc1)C(=O)N(C)CC#N [Compound 3.88, 1-(cyanomethyl)-3-ethyl-1-methyl-3-[[4-[5-(trifluoromethyl)-1,2,4-oxadiazol-3-yl]phenyl]methyl]urea]
≥ 80%: inhibition of growth at 20 ppm [1, 4] | pest or weed control at 200 ppm [2, 5] | pest or weed control at 200 ppm [3, 6]

CC=CC(=O)N(Cc1ccc(-c2noc(C(F)(F)F)n2)cc1)C(C)CC (stereo not drawn) [Compound 1.370, N-sec-butyl-N-[[4-[5-(trifluoromethyl)-1,2,4-oxadiazol-3-yl]phenyl]methyl] but-2-enamide]
≥ 80%: inhibition of growth at 20 ppm [1, 4] | pest or weed control at 200 ppm [2, 5] | pest or weed control at 200 ppm [3, 6]

COCCOCC(=O)N(OC)C(C)c1ccc(-c2noc(C(F)(F)F)n2)cc1 (stereo not drawn) [Compound 1.266, N-methoxy-2-(2-methoxyethoxy)-N-[1-[4-[5-(trifluoromethyl)-1,2,4-oxadiazol-3-yl]phenyl]ethyl]-acetamide]
≥ 80%: inhibition of growth at 20 ppm [1, 4] | pest or weed control at 200 ppm [2, 5] | pest or weed control at 200 ppm [3, 6]

CN(Cc1ccc(-c2noc(C(F)(F)F)n2)cc1)C(=O)N1CCCO1 [Compound 3.69, N-methyl-N-[[4-[5-(trifluoromethyl)-1,2,4-oxadiazol-3-yl]phenyl]methyl]-isoxazolidine-2-carboxamide]
≥ 80%: inhibition of growth at 20 ppm [1, 4] | pest or weed control at 200 ppm [2, 5] | pest or weed control at 200 ppm [3, 6]

COCCN(Cc1ccc(-c2noc(C(F)(F)F)n2)cc1)C(=O)C1CCCC1 [Compound 1.332, N-(2-methoxyethyl)-N-[[4-[5-(trifluoromethyl)-1,2,4-oxadiazol-3-yl]phenyl]methyl]-cyclopentane-carboxamide]
≥ 80%: inhibition of growth at 20 ppm [1, 4] | pest or weed control at 200 ppm [2, 5] | pest or weed control at 200 ppm [3, 6]

CN(Cc1ccc(-c2noc(C(F)(F)F)n2)cc1)C(=O)N(C)CC1CC1 [Compound 3.83, 1-(cyclopropylmethyl)-1,3-dimethyl-3-[[4-[5-(trifluoromethyl)-1,2,4-oxadiazol-3-yl]phenyl]methyl]urea]
≥ 80%: inhibition of growth at 20 ppm [1, 4] | pest or weed control at 200 ppm [2, 5] | pest or weed control at 200 ppm [3, 6]

CCCC(=O)N(Cc1ccc(-c2noc(C(F)(F)F)n2)cc1)Cc1ccco1 [Compound 1.465, N-(2-furylmethyl)-N-[[4-[5-(trifluoromethyl)-1,2,4-oxadiazol-3-yl]phenyl]methyl]-butanamide]
≥ 80%: inhibition of growth at 20 ppm [1, 4] | pest or weed control at 200 ppm [2, 5] | pest or weed control at 200 ppm [3, 6]

CCCN(C)C(=O)N(C)Cc1ccc(-c2noc(C(F)(F)F)n2)cc1 [Compound 3.75, 1,3-dimethyl-1-propyl-3-[[4-[5-(trifluoromethyl)-1,2,4-oxadiazol-3-yl]phenyl]methyl]urea]
≥ 80%: inhibition of growth at 20 ppm [1, 4] | pest or weed control at 200 ppm [2, 5] | pest or weed control at 200 ppm [3, 6]

COCCN(Cc1ccc(-c2noc(C(F)(F)F)n2)cc1)C(=O)c1ccoc1 [Compound 1.362, N-(2-methoxyethyl)-N-[[4-[5-(trifluoromethyl)-1,2,4-oxadiazol-3-yl]phenyl]methyl]-furan-3-carboxamide]
≥ 80%: inhibition of growth at 20 ppm [1, 4] | pest or weed control at 200 ppm [2, 5] | pest or weed control at 200 ppm [3, 6]

C=CCN(Cc1ccc(-c2noc(C(F)(F)F)n2)cc1)C(=O)CC#N [Compound 1.490, N-allyl-2-cyano-N-[[4-[5-(trifluoromethyl)-1,2,4-oxadiazol-3-yl]phenyl]methyl]-acetamide]
≥ 80%: inhibition of growth at 20 ppm [1, 4] | pest or weed control at 200 ppm [2, 5] | pest or weed control at 200 ppm [3, 6]

CON(Cc1ccc(-c2noc(C(F)(F)F)n2)cc1)C(=O)Oc1ccccc1 [Compound 2.6, phenyl N-methoxy-N-[[4-[5-(trifluoromethyl)-1,2,4-oxadiazol-3-yl]phenyl]methyl]-carbamate]
≥ 80%: inhibition of growth at 20 ppm [1] | pest or weed control at 200 ppm [2] | pest or weed control at 200 ppm [3]

COCC(=O)N(Cc1ccc(-c2noc(C(F)(F)F)n2)cc1)CC1CCCO1 (stereo not drawn) [Compound 1.415, 2-methoxy-N-(tetrahydrofuran-2-ylmethyl)-N-[[4-[5-(trifluoromethyl)-1,2,4-oxadiazol-3-yl]phenyl]methyl]-acetamide]
≥ 80%: inhibition of growth at 20 ppm [1, 4] | pest or weed control at 200 ppm [2, 5] | pest or weed control at 200 ppm [3, 6]

C=C(C)C(=O)N(Cc1ccc(-c2noc(C(F)(F)F)n2)cc1)CC1CCCO1 (stereo not drawn) [Compound 1.433, 2-methyl-N-(tetrahydrofuran-2-ylmethyl)-N-[[4-[5-(trifluoromethyl)-1,2,4-oxadiazol-3-yl]phenyl]methyl]-prop-2-enamide]
≥ 80%: inhibition of growth at 20 ppm [1, 4] | pest or weed control at 200 ppm [2, 5] | pest or weed control at 200 ppm [3, 6]

CN(Cc1ccc(-c2noc(C(F)(F)F)n2)cc1)C(=O)CCl [Compound 1.522, 2-chloro-N-methyl-N-[[4-[5-(trifluoromethyl)-1,2,4-oxadiazol-3-yl]phenyl]methyl]-acetamide]
≥ 80%: inhibition of growth at 20 ppm [1, 4] | pest or weed control at 200 ppm [2, 5] | pest or weed control at 200 ppm [3, 6]

CCN(CC1CC1)C(=O)N(C)Cc1ccc(-c2noc(C(F)(F)F)n2)cc1 [Compound 3.81, 1-(cyclopropylmethyl)-1-ethyl-3-methyl-3-[[4-[5-(trifluoromethyl)-1,2,4-oxadiazol-3-yl]phenyl]methyl]urea]
≥ 80%: inhibition of growth at 20 ppm [1, 4] | pest or weed control at 200 ppm [2, 5] | pest or weed control at 200 ppm [3, 6]

O=C(C1CSC1)N(Cc1ccc(-c2noc(C(F)(F)F)n2)cc1)CC1CCCO1 (stereo not drawn) [Compound 1.421, N-(tetrahydrofuran-2-ylmethyl)-N-[[4-[5-(trifluoromethyl)-1,2,4-oxadiazol-3-yl]phenyl]methyl]-thietane-3-carboxamide]
≥ 80%: inhibition of growth at 20 ppm [1, 4] | pest or weed control at 200 ppm [2, 5] | pest or weed control at 200 ppm [3, 6]

COCCN(Cc1ccc(-c2noc(C(F)(F)F)n2)cc1)C(=O)CC(C)C [Compound 1.336, N-(2-methoxyethyl)-3-methyl-N-[[4-[5-(trifluoromethyl)-1,2,4-oxadiazol-3-yl]phenyl]methyl]-butanamide]
≥ 80%: inhibition of growth at 20 ppm [1, 4] | pest or weed control at 200 ppm [2, 5] | pest or weed control at 200 ppm [3, 6]

CCCCC(=O)N(CCOC)Cc1ccc(-c2noc(C(F)(F)F)n2)cc1 [Compound 1.366, N-(2-methoxyethyl)-N-[[4-[5-(trifluoromethyl)-1,2,4-oxadiazol-3-yl]phenyl]methyl]-pentanamide]
≥ 80%: inhibition of growth at 20 ppm [1, 4] | pest or weed control at 200 ppm [2, 5] | pest or weed control at 200 ppm [3, 6]

CC(C)C(=O)N(Cc1ccc(-c2noc(C(F)(F)F)n2)cc1)Cc1ccco1 [Compound 1.463, N-(2-furylmethyl)-2-methyl-N-[[4-[5-(trifluoromethyl)-1,2,4-oxadiazol-3-yl]phenyl]methyl]-propanamide]
≥ 80%: inhibition of growth at 20 ppm [1, 4] | pest or weed control at 200 ppm [2, 5] | pest or weed control at 200 ppm [3, 6]

O=C(C1CC1)N(Cc1ccc(-c2noc(C(F)(F)F)n2)cc1)Cc1ccco1 [Compound 1.474, N-(2-furylmethyl)-N-[[4-[5-(trifluoromethyl)-1,2,4-oxadiazol-3-yl]phenyl]methyl]-cyclopropane-carboxamide]
≥ 80%: inhibition of growth at 20 ppm [1, 4] | pest or weed control at 200 ppm [2, 5] | pest or weed control at 200 ppm [3, 6]
